Experimental data published in PubChem BioAssay AID256 (DTP/NCI, 2004).
Values joined by “and” are separate entries in the source; they are usually repeats but may differ in a detail not shown here. Equal values may be shown once. Toxic doses and inconclusive results are not listed. The calls were made as follows: active = survival T/C of 150% or more; inactive = T/C below 125% in these data.

Test system: CD2F1 mice, L1210 leukemia ip, survival T/C
Test: NCI In Vivo Anticancer Drug Screen. Data for tumor model L1210 Leukemia (intraperitoneal) in CD2F1 (CDF1) mice
Settings: endpoint: mean survival time, higher = longer survival
Method in brief: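 Activity against a transplanted murine tumor was judged by comparing the compound group with a vehicle group. The outcome in the treated animals was divided by that in the controls.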

[1] = dose: 100.0 mg/kg/injection, schedule: Q01DX001 (ip), vehicle: saline with Tween-80
[2] = dose: 100.0 mg/kg/injection, schedule: Q01DX009 (ip), vehicle: saline with Tween-80
[3] = dose: 200.0 mg/kg/injection, schedule: Q01DX001 (ip), vehicle: saline with Tween-80
[4] = dose: 200.0 mg/kg/injection, schedule: Q01DX009 (ip), vehicle: saline with Tween-80
[5] = dose: 400.0 mg/kg/injection, schedule: Q01DX001 (ip), vehicle: saline with Tween-80
[6] = dose: 400.0 mg/kg/injection, schedule: Q01DX009 (ip), vehicle: saline with Tween-80
[7] = dose: 50.0 mg/kg/injection, schedule: Q01DX009 (ip), vehicle: saline with Tween-80
[8] = dose: 100.0 mg/kg/injection, schedule: Q04DX003 (ip), vehicle: saline with Tween-80
[9] = dose: 200.0 mg/kg/injection, schedule: Q04DX003 (ip), vehicle: saline with Tween-80
[10] = dose: 400.0 mg/kg/injection, schedule: Q04DX003 (ip), vehicle: saline with Tween-80
[11] = dose: 12.5 mg/kg/injection, schedule: Q01DX005 (ip), vehicle: other
[12] = dose: 25.0 mg/kg/injection, schedule: Q01DX005 (ip), vehicle: other
[13] = dose: 50.0 mg/kg/injection, schedule: Q01DX005 (ip), vehicle: other
[14] = dose: 100.0 mg/kg/injection, schedule: Q01DX005 (ip), vehicle: other
[15] = dose: 200.0 mg/kg/injection, schedule: Q01DX005 (ip), vehicle: other
[16] = dose: 25.0 mg/kg/injection, schedule: Q01DX009 (ip), vehicle: water
[17] = dose: 100.0 mg/kg/injection, schedule: Q04DX002 (ip), vehicle: saline with Tween-80
[18] = dose: 200.0 mg/kg/injection, schedule: Q04DX002 (ip), vehicle: saline with Tween-80

Measured: T/C

CC(=O)c1cccc(OC(=O)c2ccccc2)c1
inactive: [1] 104 % of control | [2] 97 % of control | [3] 94 % of control | [4] 94 % of control | [5] 104 % of control | [6] 91 % of control

CN(Cc1ccc2nc(N)[nH]c(=O)c2n1)c1ccc(C(=O)NC(CCC(=O)O)C(=O)O)cc1 (configuration not stated)
inactive: dose: 0.5 mg/kg/injection, schedule: Q01DX005 (ip), vehicle: sodium bicarbonate 98 % of control and 101 % of control | dose: 1.0 mg/kg/injection, schedule: Q01DX005 (ip), vehicle: sodium bicarbonate 101 % of control and 104 % of control | dose: 2.0 mg/kg/injection, schedule: Q01DX005 (ip), vehicle: sodium bicarbonate 101 % of control and 102 % of control | dose: 4.0 mg/kg/injection, schedule: Q01DX005 (ip), vehicle: sodium bicarbonate 98 % of control and 102 % of control | dose: 8.0 mg/kg/injection, schedule: Q01DX005 (ip), vehicle: sodium bicarbonate 104 % of control and 107 % of control | dose: 16.0 mg/kg/injection, schedule: Q01DX005 (ip), vehicle: sodium bicarbonate 102 % of control and 107 % of control

O=C(O)c1ccc(C(=O)O)c(C(=O)O)c1.[NH-]Cc1ccccc1C[NH-].[Pt+2]
inactive: dose: 5.0 mg/kg/injection, schedule: Q04DX003 (ip), vehicle: sodium bicarbonate 110 % of control | dose: 10.0 mg/kg/injection, schedule: Q04DX003 (ip), vehicle: sodium bicarbonate 110 % of control | dose: 20.0 mg/kg/injection, schedule: Q04DX003 (ip), vehicle: sodium bicarbonate 108 % of control | dose: 40.0 mg/kg/injection, schedule: Q04DX003 (ip), vehicle: sodium bicarbonate 108 % of control | dose: 80.0 mg/kg/injection, schedule: Q04DX003 (ip), vehicle: sodium bicarbonate 96 % of control

CN(C)c1ccc(/C=N/NC(=O)CNC(=O)Nc2cccc([N+](=O)[O-])c2)c(Cl)c1
inactive: [7] 88 % of control

Cc1cc(Br)ccc1[NH-].Cc1cc(Br)ccc1[NH-].[Cl][Pt+2][Cl]
inactive: dose: 8.8 mg/kg/injection, schedule: Q04DX003 (ip), vehicle: saline with Tween-80 97 % of control | dose: 17.5 mg/kg/injection, schedule: Q04DX003 (ip), vehicle: saline with Tween-80 97 % of control | dose: 35.0 mg/kg/injection, schedule: Q04DX003 (ip), vehicle: saline with Tween-80 97 % of control | dose: 70.0 mg/kg/injection, schedule: Q04DX003 (ip), vehicle: saline with Tween-80 109 % of control

CCCCOc1cc([N+](=O)[O-])ccc1CO
inactive: [8] 94 % of control | [9] 92 % of control | [10] 87 % of control

C/C(=N/O)c1ccc(O)cc1
inactive: [8] 90 % of control | [9] 100 % of control | [10] 94 % of control

CCOC(=O)c1nc(N)c2c(CC#N)nn(-c3ccccc3)c2n1
inactive: [11] 90 % of control | [12] 93 % of control | [13] 93 % of control | [14] 87 % of control | [15] 93 % of control

CNNCc1c[nH]c(=O)[nH]c1=O
inactive: [16] 110 % of control | dose: 50.0 mg/kg/injection, schedule: Q01DX009 (ip), vehicle: water 102 % of control | dose: 100.0 mg/kg/injection, schedule: Q01DX009 (ip), vehicle: water 102 % of control | dose: 200.0 mg/kg/injection, schedule: Q01DX009 (ip), vehicle: water 93 % of control | dose: 400.0 mg/kg/injection, schedule: Q01DX009 (ip), vehicle: water 100 % of control

CCCCCCCCCCCC(C)(O)C#N (configuration not stated)
inactive: dose: 100.0 mg/kg/injection, schedule: Q04DX002 (ip), vehicle: saline 96 % of control | dose: 200.0 mg/kg/injection, schedule: Q04DX002 (ip), vehicle: saline 92 % of control | dose: 400.0 mg/kg/injection, schedule: Q04DX002 (ip), vehicle: saline 100 % of control

Cn1c2nc3ccccc3c-2nc2ccccc21
inactive: dose: 1.56 mg/kg/injection, schedule: Q01DX009 (ip), vehicle: water 100 % of control | dose: 3.13 mg/kg/injection, schedule: Q01DX009 (ip), vehicle: water 93 % of control | dose: 6.25 mg/kg/injection, schedule: Q01DX009 (ip), vehicle: water 88 % of control | dose: 12.5 mg/kg/injection, schedule: Q01DX009 (ip), vehicle: water 89 % of control | dose: 25.0 mg/kg/injection, schedule: Q01DX009 (ip), vehicle: Klucel (hydroxypropylcellulose) (HPC) 101 % of control | [16] 86 % of control and 89 % of control | dose: 50.0 mg/kg/injection, schedule: Q01DX009 (ip), vehicle: Klucel (hydroxypropylcellulose) (HPC) 103 % of control | dose: 100.0 mg/kg/injection, schedule: Q01DX009 (ip), vehicle: Klucel (hydroxypropylcellulose) (HPC) 105 % of control | dose: 200.0 mg/kg/injection, schedule: Q01DX009 (ip), vehicle: Klucel (hydroxypropylcellulose) (HPC) 95 % of control

O=C1OC(c2ccccc2)(C2(c3ccccc3)OC(=O)c3ccccc32)c2ccccc21 (configuration not stated)
inactive: [8] 89 % of control

CC(=O)OC1C(CNC(=O)N(C)N=O)OC(OC2(CNC(=O)N(C)N=O)OC(CNC(=O)N(C)N=O)C(OC(C)=O)C2OC(C)=O)C(OC(C)=O)C1OC(C)=O (configuration not stated)
inactive: dose: 12.5 mg/kg/injection, schedule: Q01DX009 (ip), vehicle: other 93 % of control | dose: 25.0 mg/kg/injection, schedule: Q01DX009 (ip), vehicle: other 94 % of control | dose: 50.0 mg/kg/injection, schedule: Q01DX009 (ip), vehicle: other 104 % of control | dose: 100.0 mg/kg/injection, schedule: Q01DX009 (ip), vehicle: other 102 % of control | dose: 200.0 mg/kg/injection, schedule: Q01DX009 (ip), vehicle: other 120 % of control

O=[N+]([O-])c1ccc(Nc2cccc(Cl)c2)c([N+](=O)[O-])c1
inactive: [9] 87 % of control

CC(=O)N1CCc2cc(N)ccc21
inactive: [8] 93 % of control | [9] 95 % of control | [10] 97 % of control

O=C=NC(=O)c1ccccc1
inactive: [17] 96 % of control | [18] 100 % of control | dose: 400.0 mg/kg/injection, schedule: Q04DX002 (ip), vehicle: saline with Tween-80 118 % of control

CCCCC(=O)Nc1ccc(Cl)cc1
inactive: [1] 101 % of control | [3] 95 % of control | [5] 106 % of control

CC(C)(C(=O)c1ccccc1)C(OC(=O)c1ccccc1)c1ccccc1 (configuration not stated)
inactive: [1] 106 % of control | [3] 98 % of control | [5] 104 % of control

Nc1ncnc2c1nnn2Cc1ccco1
inactive: [11] 96 % of control | [12] 89 % of control | [13] 89 % of control | [14] 93 % of control | [15] 96 % of control

Cn1nc(CC#N)c2c(N)ncnc21
inactive: dose: 12.5 mg/kg/injection, schedule: Q01DX005 (ip), vehicle: water 96 % of control | dose: 25.0 mg/kg/injection, schedule: Q01DX005 (ip), vehicle: water 93 % of control | dose: 50.0 mg/kg/injection, schedule: Q01DX005 (ip), vehicle: water 92 % of control | dose: 100.0 mg/kg/injection, schedule: Q01DX005 (ip), vehicle: water 88 % of control | dose: 200.0 mg/kg/injection, schedule: Q01DX005 (ip), vehicle: water 91 % of control

CCCCOP(=O)(OC)OCCCC
inactive: [17] 94 % of control | [18] 102 % of control

CCOC(=O)C1=C(C)NC(C)=C(C(=O)OCC)C1c1ccccc1
inactive: [7] 98 % of control | dose: 50.0 mg/kg/injection, schedule: Q04DX003 (ip), vehicle: saline with Tween-80 97 % of control | [2] 102 % of control | [8] 97 % of control and 100 % of control | [4] 102 % of control | [9] 90 % of control and 96 % of control | [10] 103 % of control

C[N+](C)(CCCCCCCCCC[N+](C)(C)CC(=O)c1ccccc1)CC(=O)c1ccccc1
inactive: dose: 0.5 mg/kg/injection, schedule: Q04DX003 (ip), vehicle: saline 101 % of control | dose: 1.0 mg/kg/injection, schedule: Q04DX003 (ip), vehicle: saline 94 % of control | dose: 2.0 mg/kg/injection, schedule: Q04DX003 (ip), vehicle: saline 95 % of control

CC(=O)OC(C)Cc1ccccc1 (configuration not stated)
inactive: [7] 96 % of control | [2] 96 % of control | [4] 100 % of control

CC(=O)Nc1ccc(OC(=O)Nc2ccc(F)c(Cl)c2)cc1
inactive: [2] 98 % of control | [4] 93 % of control | [6] 110 % of control
